Legend:
[1] = tested on: mouse bone marrow dendritic cells (BMDCs); assay: Flow cytometry analysis of dendritic cell maturation surface markers on treated BMDCs; type: cell-based; details: for Ability to inhibit dendritic cell maturation: all zinc concentrations, directly proportional to the zinc concentration; for CD11c expression level / CD40 expression level / CD80 expression level / CD83 expression level / CD86 expression level / MHC II expression level: 48 hours
Procedure: Mice were sacrificed with carbon dioxide and immersed in 75% alcohol. After immersing for 3 minutes, the mice were removed from the alcohol and wiped. Then, the mouse limbs were fixed on a Styrofoam board. Next, the entire femur and tibia were collected by carefully cutting off the mouse skin and muscle. A filter (100 μm) was placed in a 3-cm dish and 2 ml of RPMI-1640 medium was added into the dish. Two ends of the femur were cut, and the bone marrow was collected by repeatedly washing the femur with the cell medium using a 26 G syringe until the femur appeared white. The bone marrow in the tibia was also collected by the same method. The filter was scraped by the reverse side of 1 mL tip to break up the cell clumps in the bone marrow and washed with the cell medium in the dish several times. Then, the cell medium in the dish was collected and placed into a tube to centrifuge at 1500 rpm for 3 minutes. After centrifuging, the supernatant was removed and 1 mL of RBC lysis buffer was added into the tube. After standing for 5 minutes, the tube was centrifuged at 1500 rpm for 3 minutes again. After removing the supernatant, a milky-white pellet was obtained. The pellet was re-suspended with the DC medium and the cell number of the suspension thus obtained was counted.
The cell concentration of the suspension was adjusted to 5×10^5 cells per mL. 1 mL of the suspension was added into each well of a 24-well plate. The 24-well plate was incubated at 37.5° C. and 5% CO2 for 2 days. The unattached granulocytes were removed by carefully removing the cell medium, and then, 0.5 mL of DC medium was added into each well of the 24-well plate. After incubating 3 days, the medium in each well was replaced with 0.5 mL of fresh DC medium and continuously incubated for 3 days. The 24-well plate was taken out from the incubator, and the medium in each well was carefully removed. The bottom of each well was gently pipetted with 2 mL of PBS several times. The pipetted PBS was collected into a centrifuge tube to count the number of cells and analyze the expression level of CD11c using flow cytometry.
(§1) After culturing for 48 hours, the cells and their medium in each group were collected to conduct the following analysis, respectively.
The cells obtained from (1-1) were counted and the cell concentration was adjusted with PBS to provide a cell suspension of 1×10^5 cells to 5×10^5 cells per 100 μL. 100 μL of the cell suspension was evenly mixed with 20 μL of FcR Blocking Reagent, and the mixture thus obtained was placed at 4° C. for 10 minutes. Furthermore, the antibodies of CD11c, CD40, CD80, CD83, CD86, MHC II and corresponding isotype control were added into the tubes containing the mixture, respectively. After vortexing for 1 second, the tubes were placed at room temperature in the dark for 15 minutes. Then, 300 μL of PBS was added into each tube, and after vortexing for 1 second, the tubes were centrifuged at 200×g for 5 minutes. The resulting supernatants were removed and the cells were re-suspended with 300 μL of PBS. Finally, the cell suspensions thus obtained were analyzed by flow cytometry, wherein all the cell suspension of each group were kept on ice in the dark until the analysis was conducted.

[2] = tested on: IL12P70; assay: ELISA analysis of IL12P70 in the medium of treated BMDCs; type: cell-based, mouse; details: BMDC media, all groups of the substance
Procedure: The secretion level of IL12P70 in immature DCs is very low, whereas mature DCs secret a large amount of IL12P70, allowing it an indicator of DC maturation. In this example, the expression levels of the surface markers (CD11c, CD40, CD83, CD86) on the BMDCs were analyzed using flow cytometry, and the secretion level of IL12p70 in the BMDCs' medium was measured with an ELISA kit, to observe the effects of amino acid-chelated zinc on dendritic cell maturation.
as §1
The media obtained from each group were placed into tubes, respectively, and the tubes were centrifuged (400×g) at 4° C. for 10 minutes to collect the supernatants. The IL12p70 standard was subjected to a serial dilution to provide a standard curve. The standards at various concentrations and the supernatants obtained from each group were added into a 96-well plate pre-coating with IL12p70 antibodies (100 μL per well, in duplicate). […] The absorbance value at 450 nm (OD450) in each well was detected within 3 minutes. Based on the standard curve resulted from the absorbance values of IL12p70 standards at various concentrations, the IL12p70 amounts corresponding to the absorbance values of each group were calculated as shown in Table 2.

[3] = tested on: CIA rat; assay: Arthritis severity score in collagen-induced arthritis (CIA) animal model; type: in vivo, Lewis rats; parameters: Arthritis severity score: scale not given here; details: CIA rats; for Progression of arthritis severity after Day 17: compared to the CIA group
Procedure: (§2) Lewis rats were bred under the condition with a temperature of 21° C. to 25° C., a humidity level of 40% to 70%, and a lighting period of 12 hours (7 a.m. to 7 p.m.). The rats had free access to the feed. All the rats were monitored for at least 6 days to ensure their health to prepare a collagen-induced arthritis (CIA) animal model.
(§3) A collagen emulsion was prepared by evenly mixing collagen and IFA at a volume ratio of 1:1 using a homogenizer in a cold water bath. On Day 1, 200 μL of the collagen emulsion was injected subcutaneously at the base of the rat's tail, followed by a booster injection of 100 μL of the collagen emulsion at a different site on the base of the tail on Day 8. All the rats successfully developed CIA by Day 17 (hereinafter referred to as “CIA rat”).
(§4) As described in Preparation example C, all the rats successfully developed CIA by Day 17. Therefore, the CIA rats were randomly divided into four groups from Day 17 to administer the following solutions until the rats were sacrificed on Day 24, wherein the healthy rats not to induce arthritis were served as the control group: • (1) Control group (five healthy rats): 2 mL of PBS; • (2) CIA group (five CIA rats): 2 mL of PBS; • (3) MTX group (three CIA rats): 1 mg of MTX per kilogram of rat, dissolved in 2 mL of PBS; • (4) CMC-Zn group (five CIA rats): CMC-Zn at a zinc concentration of 0.075 mg, dissolved in 2 mL of PBS; and • (5) Modified CMC-Zn group (five CIA rats): modified CMC-Zn at a zinc concentration of 0.075 mg, dissolved in 2 mL of PBS.
(§5) The rat's paws were observed and their paw volumes were measured on Days 0, 3, 7, 10, 14, 17, 21 and 24. The arthritis severity of rats was evaluated by using the qualitative scoring system of Table 3, and the paw volume was determined by the following approach in accordance with the buoyancy principle of Archimedes' law: adding an appropriate amount of water into a beaker; placing the beaker on a scale and resetting to zero; placing the rat's paw into the water and immersing it to the target depth; and recoding the reading once it had stabilized.

[4] = tested on: CIA rat; assay: Paw volume (average weight percentage of both paws) in collagen-induced arthritis (CIA) animal model; type: in vivo, Lewis rats; details: for Weight percentages of the rats' paws on Day 24 (FIG. 4): Day 24, compared to the untreated CIA rats (p value<0.05); for Weight percentages of the rats' paws over time (FIG. 3): after administration from Day 17, compared to the CIA group
Procedure: as §2, §3, §4, §5

[5] = zinc concentration 3.27 mg/mL (low concentration)
[6] = zinc concentration 6.54 mg/mL (medium concentration)
[7] = zinc concentration 13.08 mg/mL (high concentration)
[8] = Day 0 (before administration, which starts Day 17)
[9] = Day 17 (start of administration)
[10] = Day 21, administered from Day 17
[11] = Day 24, administered from Day 17

| Compound | Ability to inhibit dendritic cell maturation [1] | CD11c expression level [1, 5] | CD40 expression level [1, 5] | CD80 expression level [1, 5] | CD83 expression level [1, 5] | CD86 expression level [1, 5] | MHC II expression level [1, 5] | CD11c expression level [1, 6] | CD40 expression level [1, 6] | CD80 expression level [1, 6] | CD83 expression level [1, 6] | CD86 expression level [1, 6] | MHC II expression level [1, 6] | CD11c expression level [1, 7] | CD40 expression level [1, 7] | CD80 expression level [1, 7] | CD83 expression level [1, 7] | CD86 expression level [1, 7] | MHC II expression level [1, 7] | IL12P70 in the media [2] | also measured |
| --- | --- | --- | --- | --- | --- | --- | --- | --- | --- | --- | --- | --- | --- | --- | --- | --- | --- | --- | --- | --- | --- |
| O=S(=O)([O-])[O-].[Zn+2] [Zinc sulfate, reference compound] | demonstrated the ability to inhibit dendritic cell maturation | 87.2 | 16.1 | 46.7 | 12.9 | 49.2 | 16.8 | 85.4 | 11.2 | 37.2 | 10.4 | 41.3 | 11.9 | 85.6 | 8.5 | 26.8 | 6.68 | 26 | 8.08 | not detected | – |
| CN(Cc1cnc2nc(N)nc(N)c2n1)c1ccc(C(=O)N[C@@H](CCC(=O)O)C(=O)O)cc1 [MTX, Methotrexate, reference compound] | – | – | – | – | – | – | – | – | – | – | – | – | – | – | – | – | – | – | – | – | Arthritis severity score [3, 8]: 0; Arthritis severity score ([3]; Day 3 (before administration)): 0; Arthritis severity score ([3]; Day 7 (before administration)): 0; Arthritis severity score ([3]; Day 10 (before administration)): 0; Arthritis severity score ([3]; Day 14 (before administration)): 0.3; Arthritis severity score [3, 9]: 3.7; Arthritis severity score [3, 10]: 3.7; Arthritis severity score [3, 11]: 3; Progression of arthritis severity after Day 17 [3]: slower progression or even reduction in arthritis severity; Weight percentages of the rats' paws on Day 24 (FIG. 4) [4]: significantly decreased; Weight percentages of the rats' paws over time (FIG. 3) [4]: gradually decreased |
| glycine-chelated zinc [CMC-Zn] | demonstrated the ability to inhibit dendritic cell maturation | 88.3 | 25 | 39 | 16.1 | 37.9 | 25 | 87.8 | 13.1 | 23.7 | 10.3 | 23.1 | 14 | 74.1 | 6.24 | 26.5 | 4.38 | 25.4 | 6.41 | not detected | Expression levels of CD80 and CD86 compared to the groups of zinc sulfate ([1]; low and medium concentration): significantly decreased; Expression levels of the markers compared to the Immature DC group ([1]; low concentration (3.27 mg/mL zinc)): even lower; Arthritis severity score [3, 8]: 0; Arthritis severity score ([3]; Day 3 (before administration)): 0; Arthritis severity score ([3]; Day 7 (before administration)): 0; Arthritis severity score ([3]; Day 10 (before administration)): 0; Arthritis severity score ([3]; Day 14 (before administration)): 0.4; Arthritis severity score [3, 9]: 3.8; Arthritis severity score [3, 10]: 4.4; Arthritis severity score [3, 11]: 4.6; Progression of arthritis severity after Day 17 [3]: slower progression or even reduction in arthritis severity; Weight percentages of the rats' paws on Day 24 (FIG. 4) [4]: significantly decreased; Weight percentages of the rats' paws over time (FIG. 3) [4]: gradually decreased |

Reference: patent publication US20250235423A1, “USES OF AMINO ACID-CHELATED ZINC, INCLUDING IMMUNE REGULATION AND TREATMENT OF AUTOIMMUNE DISEASE” (FAAC Bio Inc., priority 2024, published 2025)
